Experiment [1] can be described thus: Displacement of Fluormone-AL green from rat GST/His-tagged AR LBD mutant after 4 hrs by Fluorescence polarization assay. In general terms: Polarisation of emitted light reports the rotation of a fluorescent probe.
A short description of experiment [2]: Antiproliferative activity against human LNCaP-hr cells expressing AR T877A mutant after 3 days by MTT assay. The format is functional, cell-based. To be noted: 72 h. For orientation: Formazan colour is commonly taken as a measure of viable cells.
In the next experiment the test system is DU-145. As to the kind of experiment: Antiproliferative activity against AR negative human DU145 cells after 3 days by MTT assay. To be noted: DU-145, 72 h. Format: functional, cell-based.
The target in experiment [3] is T1, Androgen receptor (Homo sapiens) (UniProt P10275).
T1 sequence (whole entry): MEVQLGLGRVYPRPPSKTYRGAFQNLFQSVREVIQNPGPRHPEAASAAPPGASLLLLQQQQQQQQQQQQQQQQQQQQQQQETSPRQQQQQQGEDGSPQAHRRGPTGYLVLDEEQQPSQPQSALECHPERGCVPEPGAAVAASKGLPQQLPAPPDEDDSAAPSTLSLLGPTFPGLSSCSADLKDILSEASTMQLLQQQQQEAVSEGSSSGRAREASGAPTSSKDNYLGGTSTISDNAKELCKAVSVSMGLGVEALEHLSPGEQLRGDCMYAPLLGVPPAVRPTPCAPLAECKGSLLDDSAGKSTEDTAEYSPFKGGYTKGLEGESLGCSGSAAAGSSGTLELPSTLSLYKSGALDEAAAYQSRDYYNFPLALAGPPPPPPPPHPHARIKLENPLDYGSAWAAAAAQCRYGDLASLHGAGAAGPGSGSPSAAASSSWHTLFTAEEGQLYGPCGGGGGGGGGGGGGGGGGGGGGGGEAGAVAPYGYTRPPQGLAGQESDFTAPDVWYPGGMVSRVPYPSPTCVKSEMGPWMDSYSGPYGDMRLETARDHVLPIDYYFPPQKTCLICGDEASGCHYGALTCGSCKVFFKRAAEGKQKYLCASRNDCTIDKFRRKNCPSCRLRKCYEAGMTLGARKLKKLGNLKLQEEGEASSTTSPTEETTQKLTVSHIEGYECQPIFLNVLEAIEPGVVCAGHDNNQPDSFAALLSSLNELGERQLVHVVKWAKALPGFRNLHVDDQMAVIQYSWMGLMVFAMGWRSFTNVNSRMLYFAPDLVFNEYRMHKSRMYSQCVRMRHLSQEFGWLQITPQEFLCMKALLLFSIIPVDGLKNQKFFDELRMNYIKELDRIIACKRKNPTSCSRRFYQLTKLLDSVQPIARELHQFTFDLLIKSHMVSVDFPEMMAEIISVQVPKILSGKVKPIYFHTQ
The following applies: at 10 µM.
Description: Antagonist activity at androgen receptor (unknown origin) expressed in COS-7 cells assessed as inhibition of R1881-induced MMTV promoter activity at 10 uM by luciferase reporter gene assay relative to control

Experiment [4] concerns Androgen receptor (Homo sapiens), P10275 [T878A]. To be noted: at 10 µM.
Description: Inhibition of R1881-induced AR T877A mutant nuclear translocation in human LNCAP cells assessed as reduction in ratio of nuclear to cytoplasmic AR levels at 10 uM after 12 hrs by DAPI-staining based fluorescent microscopy

Activity calls are given as the source filed them. The calls are words filed in the database; no cut-off is given here.

Sequence of Androgen receptor (Homo sapiens), P10275 [T878A] (P10275 whole entry T878A): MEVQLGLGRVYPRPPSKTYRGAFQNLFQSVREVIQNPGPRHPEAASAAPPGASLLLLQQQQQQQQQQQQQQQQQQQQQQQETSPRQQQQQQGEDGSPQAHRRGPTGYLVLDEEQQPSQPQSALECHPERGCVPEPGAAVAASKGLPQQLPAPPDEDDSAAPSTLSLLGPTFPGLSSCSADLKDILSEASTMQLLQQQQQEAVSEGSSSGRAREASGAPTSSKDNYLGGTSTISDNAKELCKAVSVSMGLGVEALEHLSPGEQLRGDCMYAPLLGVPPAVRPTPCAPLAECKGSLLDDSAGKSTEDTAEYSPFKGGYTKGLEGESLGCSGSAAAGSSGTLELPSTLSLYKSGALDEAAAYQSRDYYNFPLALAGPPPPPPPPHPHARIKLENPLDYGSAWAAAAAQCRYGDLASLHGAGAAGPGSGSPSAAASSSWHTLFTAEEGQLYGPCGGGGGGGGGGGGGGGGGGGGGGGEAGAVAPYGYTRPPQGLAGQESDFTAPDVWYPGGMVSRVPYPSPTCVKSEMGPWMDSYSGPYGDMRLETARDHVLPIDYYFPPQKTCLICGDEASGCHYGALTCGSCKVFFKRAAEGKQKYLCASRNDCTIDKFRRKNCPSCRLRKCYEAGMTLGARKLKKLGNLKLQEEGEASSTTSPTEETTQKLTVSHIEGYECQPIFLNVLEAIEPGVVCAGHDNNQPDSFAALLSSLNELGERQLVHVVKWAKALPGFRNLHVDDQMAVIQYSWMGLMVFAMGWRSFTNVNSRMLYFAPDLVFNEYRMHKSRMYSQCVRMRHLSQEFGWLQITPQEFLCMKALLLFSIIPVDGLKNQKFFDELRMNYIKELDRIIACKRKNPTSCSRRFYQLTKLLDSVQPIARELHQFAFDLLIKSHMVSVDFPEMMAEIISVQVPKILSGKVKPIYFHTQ

Regarding `CNC(=O)c1ccc(N2C(=S)N(c3ccc(C#N)c(C(F)(F)F)c3)C(=O)C2(C)C)cc1F` [ENZALUTAMIDE], the results for the IC50 in experiment [1] and in experiment [2] were 1.35 µM and 12.5 µM, respectively.

As for `N#Cc1ccc(N2C(=O)C3Cc4cc(Cl)ccc4N3C2=S)cc1C(F)(F)F` (configuration not stated), the IC50 in the experiment with DU-145 turned out to be 160 µM; in experiment [2], 46 µM. This compound also gave an inhibition in experiment [3] of 6.7%.

In the case of `N#Cc1ccc(N2C(=O)C3Cc4cc(Br)ccc4N3C2=S)cc1C(F)(F)F` (configuration not stated), the IC50 was > 200 µM in the experiment with DU-145 and 83.7 µM in experiment [2]. This compound also yielded an inhibition in experiment [3] of 57.1%.

`N#Cc1ccc(N2C(=O)C3Cc4cc(N)ccc4N3C2=S)cc1C(F)(F)F` (configuration not stated): the IC50 was > 200 µM with DU-145 and 99.1 µM in experiment [2]. For the same compound, the inhibition in experiment [3] turned out to be 23.4%.

For `C[C@]1(O)CC[C@H]2[C@@H]3CCC4=CC(=O)CCC4=C3C=C[C@@]21C`, the inhibition entry in experiment [3] was “inactive”.

As for `CNC(=O)c1ccc2c(c1)N1C(=S)N(c3ccc(C#N)c(C(F)(F)F)c3)C(=O)C1C2` (configuration not stated), the IC50 with DU-145 was > 200 µM; in experiment [2], 144 µM. In experiment [3], this compound returned an inhibition of 13.1%.

For `N#Cc1ccc(N2C(=O)C3Cc4ccc(N)cc4N3C2=S)cc1C(F)(F)F` (configuration not stated), the IC50 was 67 µM in the experiment on DU-145 and 32.6 µM in experiment [2]. For the same compound, the inhibition in experiment [3] was found to be 29%.

On to `N#Cc1ccc(N2C(=O)C3Cc4cc(C(=O)NC5CCCCC5)c(F)cc4N3C2=S)cc1C(F)(F)F` (configuration not stated), for which the IC50 in the experiment on DU-145 worked out at 126 µM; in experiment [2] it was 44.9 µM. This compound also gave an inhibition in experiment [3] of 55.1%.

Regarding `N#Cc1ccc(N2C(=O)C3Cc4ccc(C(=O)NC5CCCCC5)cc4N3C2=S)cc1C(F)(F)F` (configuration not stated), the values for the IC50 (with DU-145; in experiment [2]) were 101 µM and 29.3 µM, respectively. Also, the inhibition in experiment [3] was 22.9%.

Turning to `N#Cc1ccc(N2C(=O)C3Cc4ccc(Br)cc4N3C2=S)cc1C(F)(F)F` (configuration not stated), the figures for the IC50 (in experiment [1]; in the experiment with DU-145; in experiment [2]) were 2.98 µM, > 200 µM and 30.4 µM, respectively. This compound returned an inhibition in experiment [3] of 68.3%.

Regarding `CCNC(=O)c1cc2c(cc1F)N1C(=S)N(c3ccc(C#N)c(C(F)(F)F)c3)C(=O)C1C2` (configuration not stated), the IC50 stood at 115 µM in the experiment with DU-145 and 54.1 µM in experiment [2]. In experiment [3], the inhibition result is “inactive”.

`N#Cc1ccc(N2C(=O)C3Cc4cc([N+](=O)[O-])ccc4N3C2=S)cc1C(F)(F)F` (configuration not stated): the values for the IC50 (with DU-145; in experiment [2]) were 78.4 µM and 64.7 µM, respectively. Besides, the inhibition in experiment [3] stood at 21.8%.

Take `CCCNC(=O)c1ccc2c(c1)N1C(=S)N(c3ccc(C#N)c(C(F)(F)F)c3)C(=O)C1C2` (configuration not stated): the IC50 came out at 114 µM in the experiment with DU-145 and 90.8 µM in experiment [2]. Moreover, in experiment [3], the inhibition result was “inactive”.

With `N#Cc1ccc(N2C(=O)C3Cc4ccc(C(=O)NCCO)cc4N3C2=S)cc1C(F)(F)F` (configuration not stated), the IC50 in the experiment with DU-145 came to 175 µM; in experiment [2], 25.8 µM. Also, the inhibition in experiment [3] was found to be 37%.

For `N#Cc1ccc(N2C(=O)C3Cc4ccccc4N3C2=S)cc1C(F)(F)F` (configuration not stated), the IC50 in the experiment with DU-145 came out at 143 µM; in experiment [2] it was 15.3 µM.

In the case of `CCCCNC(=O)c1cc2c(cc1F)N1C(=S)N(c3ccc(C#N)c(C(F)(F)F)c3)C(=O)C1C2` (configuration not stated), the IC50 in the experiment on DU-145 worked out at 175 µM; in experiment [2] it was 67.3 µM. Besides, in experiment [3], the inhibition result is “inactive”.

Consider `N#Cc1ccc(N2C(=O)C3CC(O)CN3C2=S)cc1C(F)(F)F` (configuration not stated), for which the IC50 in the experiment with DU-145 was > 200 µM; in experiment [2] it was 52.6 µM. The inhibition in experiment [3] worked out at 1.9%.

Consider `CNC(=O)c1cc2c(cc1F)N1C(=S)N(c3ccc(C#N)c(C(F)(F)F)c3)C(=O)C1C2` (configuration not stated), for which the IC50 is > 200 µM in the experiment with DU-145 and 58.2 µM in experiment [2]. The inhibition entry in experiment [3] is “inactive”.

Consider `N#Cc1ccc(N2C(=O)C3CCCN3C2=S)cc1C(F)(F)F` (configuration not stated), for which the figures for the 50% inhibitory concentration (IC50) (in the experiment with DU-145; in experiment [2]) were > 200 µM and 87.7 µM, respectively. Also, in experiment [3], the inhibition was found to be 32%.

Regarding `CC(C)CNC(=O)c1cc2c(cc1F)N1C(=S)N(c3ccc(C#N)c(C(F)(F)F)c3)C(=O)C1C2` (configuration not stated), the IC50 with DU-145 was > 200 µM; in experiment [2], 70.7 µM. Besides, the inhibition entry in experiment [3] is “inactive”.

Take `N#Cc1ccc(N2C(=O)C3Cc4ccc(Cl)cc4N3C2=S)cc1C(F)(F)F` (configuration not stated): the IC50 was 2.33 µM in experiment [1], > 200 µM in the experiment on DU-145 and 27.9 µM in experiment [2]. Besides, in experiment [3], the inhibition came out at 71.9%. Besides, the inhibition result in experiment [4] was “Active”.

For `CCCCNC(=O)c1ccc2c(c1)N1C(=S)N(c3ccc(C#N)c(C(F)(F)F)c3)C(=O)C1C2` (configuration not stated), the IC50 was determined as 58 µM in the experiment on DU-145 and 77.2 µM in experiment [2]. The inhibition entry in experiment [3] is “inactive”.

Regarding `N#Cc1ccc(N2C(=O)C3Cc4ccc([N+](=O)[O-])cc4N3C2=S)cc1C(F)(F)F` (configuration not stated), the figures for the IC50 (in experiment [1]; in the experiment on DU-145; in experiment [2]) were 4.49 µM, > 200 µM and 26.9 µM, respectively. Besides, in experiment [3], the inhibition was 58.2%.

As to `CCNC(=O)c1ccc2c(c1)N1C(=S)N(c3ccc(C#N)c(C(F)(F)F)c3)C(=O)C1C2` (configuration not stated), the IC50 was determined as 105 µM in the experiment on DU-145 and 35.3 µM in experiment [2]. In experiment [3], this compound returned an inhibition of 2.1%.

In the case of `N#Cc1ccc(N2C(=O)c3cc4ccccc4n3C2=S)cc1C(F)(F)F`, the IC50 came to 146 µM in the experiment with DU-145 and 33.4 µM in experiment [2]. In addition, the inhibition in experiment [3] worked out at 21.1%.

Turning to `N#Cc1ccc(N2C(=O)C3Cc4ccc(I)cc4N3C2=S)cc1C(F)(F)F` (configuration not stated), the IC50 stood at 190 µM with DU-145 and 71.9 µM in experiment [2]. The compound further yielded an inhibition in experiment [3] of 58.4%.

On to `N#Cc1ccc(N2C(=O)C3CC4CCCCC4N3C2=S)cc1C(F)(F)F` (configuration not stated), for which the IC50 came out at 128 µM in the experiment on DU-145 and 36.2 µM in experiment [2]. Further, the inhibition in experiment [3] turned out to be 50.5%.

In the case of `CC(O)CNC(=O)c1ccc2c(c1)N1C(=S)N(c3ccc(C#N)c(C(F)(F)F)c3)C(=O)C1C2` (configuration not stated), the IC50 in the experiment on DU-145 is > 200 µM; in experiment [2], 48.4 µM. Besides, the inhibition in experiment [3] came out at 39.3%.

On to `CCCNC(=O)c1cc2c(cc1F)N1C(=S)N(c3ccc(C#N)c(C(F)(F)F)c3)C(=O)C1C2` (configuration not stated), for which the IC50 with DU-145 is > 200 µM; in experiment [2] it was 11.2 µM. Besides, the inhibition result in experiment [3] is “inactive”.

The term IC50 denotes the concentration that inhibits the measured activity by half. Read a high IC50 as weaker potency in that assay. Broadly, the inhibition is how much of the control response was suppressed.

For the origin of these results see ChEMBL document CHEMBL4000170 (Eur J Med Chem, 2017).
